Patent publication US10597388B2, “Pyridazinone herbicides” (FMC CORPORATION, priority 2014, dated 2020)

Columns and labels:
Assay in all cases: Test C greenhouse herbicide test, pre- and postemergence
Assay type in all cases: in vivo
[1] = tested on: barnyardgrass (Echinochloa crus-galli)
Excerpt: (§1) Seeds of plant species selected from blackgrass (Alopecurus myosuroides), ryegrass, Italian (Italian ryegrass, Lolium multiflorum), wheat (winter wheat, Triticum aestivum), galium (catchweed bedstraw, Galium aparine), corn (Zea mays), large crabgrass, large (large crabgrass, Digitaria sanguinalis), foxtail, giant (giant foxtail, Setaria faberii), johnsongrass (Sorghum halepense), lambsquarters (Chenopodium album), morningglory (Ipomoea coccinea), nutsedge, yellow (yellow nutsedge, Cyperus esculentus), pigweed (Amaranthus retroflexus), ragweed (common ragweed, Ambrosia elatior), soybean (Glycine max), barnyardgrass (Echinochloa crus-galli), oilseed rape (Brassica napus), waterhemp (common waterhemp, Amaranthus rudis), and velvetleaf (Abutilon theophrasti) were planted into a blend of loam soil and sand and treated preemergence with test chemicals formulated in a non-phytotoxic solvent mixture which included a surfactant.
(§2) At the same time, plants selected from these crop and weed species and also chickweed (common chickweed, Stellaria media), kochia (Kochia scoparia), and oat, wild (wild oat, Avena fatua), were planted in pots containing Redi-Earth® planting medium (Scotts Company, 14111 Scottslawn Road, Marysville, Ohio 43041) comprising spaghnum peat moss, vermiculite, wetting agent and starter nutrients and treated with postemergence applications of test chemicals formulated in the same manner. Plants ranged in height from 2 to 18 cm (1- to 4-leaf stage) for postemergence treatments. Treated plants and controls were maintained in a greenhouse for 13 to 15 d, after which time all species were compared to controls and visually evaluated. Plant response ratings, summarized in Table C, are based on a scale of 0 to 100 where 0 is no effect and 100 is complete control. A dash (-) response means no test result.

[2] = tested on: blackgrass (Alopecurus myosuroides)
Excerpt: as §1, §2

corn (Zea mays) = tested on: corn (Zea mays)
Excerpt: as §1, §2

[3] = tested on: crabgrass, large (large crabgrass, Digitaria sanguinalis)
Excerpt: as §1, §2

[4] = tested on: foxtail, giant (giant foxtail, Setaria faberii); conditions: Postemergence
Excerpt: as §1, §2

[5] = tested on: galium (catchweed bedstraw, Galium aparine)
Excerpt: as §1, §2

[6] = tested on: johnsongrass (Sorghum halepense)
Excerpt: as §1, §2

[7] = tested on: lambsquarters (Chenopodium album)
Excerpt: as §1, §2

[8] = tested on: morningglory (Ipomoea coccinea)
Excerpt: as §1, §2

[9] = tested on: nutsedge, yellow (yellow nutsedge, Cyperus esculentus)
Excerpt: as §1, §2

[10] = tested on: oilseed rape (Brassica napus)
Excerpt: as §1, §2

[11] = tested on: pigweed (Amaranthus retroflexus)
Excerpt: as §1, §2

[12] = tested on: ragweed (common ragweed, Ambrosia elatior)
Excerpt: as §1, §2

[13] = tested on: ryegrass, Italian (Italian ryegrass, Lolium multiflorum)
Excerpt: as §1, §2

[14] = tested on: velvetleaf (Abutilon theophrasti)
Excerpt: as §1, §2

[15] = tested on: waterhemp (common waterhemp, Amaranthus rudis)
Excerpt: as §1, §2

[16] = Postemergence, 31 g ai/ha, scale 0 to 100 (0 no effect, 100 complete control)
[17] = Postemergence, 125 g ai/ha, scale 0 to 100, 0 is no effect, 100 is complete control
[18] = Postemergence, 250 g ai/ha, scale 0 to 100, 0 no effect, 100 complete control, 13 to 15 d
[19] = Preemergence, 31 g ai/ha, scale 0 to 100, 0 is no effect, 100 is complete control
[20] = Preemergence, 62 g ai/ha, scale 0 to 100, 0 is no effect, 100 is complete control
[21] = Preemergence, 125 g ai/ha, scale 0 to 100, 0 is no effect, 100 is complete control
[22] = Preemergence, 250 g ai/ha, scale 0 to 100 (0 no effect, 100 complete control)
[23] = postemergence, 62 g ai/ha, scale 0 to 100, 0 no effect, 100 complete control

CCC(=O)Oc1c(Cl)nn(C)c(=O)c1-c1c(C)sc2ccc(Cl)cc12 [Compound 111]
Plant response rating, Barnyardgrass [1, 16]: 10 | Plant response rating, Barnyardgrass [1, 17]: 45 | Plant response rating, Barnyardgrass [1, 18]: 40 | Plant response rating, Barnyardgrass [1, 19]: 10 | Plant response rating, Barnyardgrass [1, 20]: 20 | Plant response rating, Barnyardgrass [1, 21]: 55 | Barnyardgrass plant response rating [1, 22]: 85 | Barnyardgrass plant response rating [1, 23]: 30 | Plant response rating, Blackgrass [2, 16]: 0 | Plant response rating, Blackgrass [2, 17]: 20 | Plant response rating, Blackgrass [2, 18]: 35 | Plant response rating, Blackgrass [2, 19]: 0 | Plant response rating, Blackgrass [2, 20]: 5 | Plant response rating, Blackgrass [2, 21]: 5 | Blackgrass plant response rating [2, 22]: 20 | Blackgrass plant response rating [2, 23]: 5 | Plant response rating, Corn (corn (Zea mays); [16]): 5 | Plant response rating, Corn (corn (Zea mays); [17]): 15 | Plant response rating, Corn (corn (Zea mays); [18]): 10 | Plant response rating, Corn (corn (Zea mays); [19]): 0 | Plant response rating, Corn (corn (Zea mays); [20]): 0 | Plant response rating, Corn (corn (Zea mays); [21]): 0 | Corn plant response rating (corn (Zea mays); [22]): 15 | Corn plant response rating (corn (Zea mays); [23]): 10 | Plant response rating, Crabgrass, Large [3, 16]: 10 | Plant response rating, Crabgrass, Large [3, 17]: 25 | Plant response rating, Crabgrass, Large [3, 18]: 25 | Plant response rating, Crabgrass, Large [3, 19]: 5 | Plant response rating, Crabgrass, Large [3, 20]: 5 | Plant response rating, Crabgrass, Large [3, 21]: 85 | Crabgrass, Large plant response rating [3, 22]: 80 | Crabgrass, Large plant response rating [3, 23]: 20 | Plant response rating, Foxtail, Giant ([4]; 31 g ai/ha, scale 0 to 100 (0 no effect, 100 complete control)): 15 | Plant response rating, Foxtail, Giant ([4]; 125 g ai/ha, scale 0 to 100, 0 is no effect, 100 is complete control): 70 | Plant response rating, Foxtail, Giant ([4]; 250 g ai/ha, scale 0 to 100, 0 no effect, 100 complete control, 13 to 15 d): 85 | Plant response rating, Galium [5, 16]: 95 | Plant response rating, Galium [5, 17]: 95 | Plant response rating, Galium [5, 18]: 95 | Plant response rating, Galium [5, 19]: 80 | Plant response rating, Galium [5, 20]: 80 | Plant response rating, Galium [5, 21]: 100 | Galium plant response rating [5, 22]: 100 | Plant response rating, Johnsongrass [6, 16]: 10 | Plant response rating, Johnsongrass [6, 17]: 15 | Plant response rating, Johnsongrass [6, 18]: 10 | Plant response rating, Johnsongrass [6, 19]: 0 | Plant response rating, Johnsongrass [6, 20]: 0 | Plant response rating, Johnsongrass [6, 21]: 0 | Johnsongrass plant response rating [6, 22]: 20 | Plant response rating, Lambsquarters [7, 16]: 90 | Plant response rating, Lambsquarters [7, 17]: 100 | Plant response rating, Lambsquarters [7, 18]: 100 | Plant response rating, Lambsquarters [7, 19]: 90 | Plant response rating, Lambsquarters [7, 20]: 95 | Plant response rating, Lambsquarters [7, 21]: 90 | Lambsquarters plant response rating [7, 22]: 95 | Plant response rating, Morningglory [8, 16]: 100 | Plant response rating, Morningglory [8, 17]: 100 | Plant response rating, Morningglory [8, 18]: 100 | Plant response rating, Morningglory [8, 19]: 50 | Plant response rating, Morningglory [8, 20]: 70 | Plant response rating, Morningglory [8, 21]: 95 | Morningglory plant response rating [8, 22]: 98 | Plant response rating, Nutsedge, Yellow [9, 16]: 35 | Plant response rating, Nutsedge, Yellow [9, 17]: 65 | Plant response rating, Nutsedge, Yellow [9, 18]: 75 | Plant response rating, Nutsedge, Yellow [9, 19]: 0 | Plant response rating, Nutsedge, Yellow [9, 20]: 20 | Plant response rating, Nutsedge, Yellow [9, 21]: 75 | Nutsedge, Yellow plant response rating [9, 22]: 90 | Plant response rating, Oilseed Rape [10, 16]: 80 | Plant response rating, Oilseed Rape [10, 17]: 95 | Plant response rating, Oilseed Rape [10, 18]: 100 | Plant response rating, Oilseed Rape [10, 19]: 0 | Plant response rating, Oilseed Rape [10, 20]: 98 | Plant response rating, Oilseed Rape [10, 21]: 100 | Oilseed Rape plant response rating [10, 22]: 100 | Plant response rating, Pigweed [11, 16]: 85 | Plant response rating, Pigweed [11, 17]: 90 | Plant response rating, Pigweed [11, 18]: 98 | Plant response rating, Pigweed [11, 19]: 98 | Plant response rating, Pigweed [11, 20]: 90 | Plant response rating, Pigweed [11, 21]: 98 | Pigweed plant response rating [11, 22]: 100 | Plant response rating, Ragweed [12, 16]: 98 | Plant response rating, Ragweed [12, 17]: 98 | Plant response rating, Ragweed [12, 18]: 100 | Plant response rating, Ragweed [12, 19]: 60 | Plant response rating, Ragweed [12, 20]: 75 | Plant response rating, Ragweed [12, 21]: 90 | Ragweed plant response rating [12, 22]: 98 | Plant response rating, Ryegrass, Italian [13, 16]: 85 | Plant response rating, Ryegrass, Italian [13, 17]: 95 | Plant response rating, Ryegrass, Italian [13, 18]: 95 | Plant response rating, Ryegrass, Italian [13, 19]: 10 | Plant response rating, Ryegrass, Italian [13, 20]: 90 | Plant response rating, Ryegrass, Italian [13, 21]: 85 | Ryegrass, Italian plant response rating [13, 22]: 95 | Plant response rating, Velvetleaf [14, 16]: 40 | Plant response rating, Velvetleaf [14, 17]: 98 | Plant response rating, Velvetleaf [14, 18]: 90 | Plant response rating, Velvetleaf [14, 19]: 65 | Plant response rating, Velvetleaf [14, 20]: 70 | Plant response rating, Velvetleaf [14, 21]: 95 | Velvetleaf plant response rating [14, 22]: 100 | Plant response rating, Waterhemp [15, 16]: 40 | Plant response rating, Waterhemp [15, 17]: 55 | Plant response rating, Waterhemp [15, 18]: 70 | Plant response rating, Waterhemp [15, 19]: 50 | Plant response rating, Waterhemp [15, 20]: 65 | Plant response rating, Waterhemp [15, 21]: 75 | Waterhemp plant response rating [15, 22]: 85
